# Data reported in patent US20230085307A1, “PYRIDAZINONE COMPOUND AND HERBICIDE” (NISSAN CHEMICAL CORPORATION, priority 2019, published 2023).
# Columns and labels:
# [1] = test system: false cleavers; assay: Test Example 4: herbicidal effect by soil treatment (Table 19, symbol Q); assay type: in vivo, false cleavers (Galium spurium); conditions: amount of applied herbicide 320 g/ha
# Summary of the method: (§1)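 Seeds were sown in sterilized diluvial soil and covered with about 1.5 cm of soil. An emulsion formulation diluted with water to a predetermined herbicide amount was sprayed evenly onto the soil surface. Plants grew in a greenhouse at 25° C. to 30° C., and the effect was scored three weeks after application using criteria from an earlier test.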
# [2] = test system: velvetleaf; assay: Test Example 4: herbicidal effect by soil treatment (Table 19, symbol M); assay type: in vivo, velvetleaf (Abutilon theophrasti); conditions: amount of applied herbicide 320 g/ha
# Summary of the method: as §1
# [3] = test system: oval-leafed pondweed; assay: Test Example 1: herbicidal activity, application before weed generation under submerged conditions (Table 16, symbol C); assay type: in vivo, oval-leafed pondweed (Monochoria vaginalis); conditions: 320 g/ha applied herbicide
# Summary of the method: (§2)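 Alluvial soil was flooded to 4 cm depth, weed seeds were sown mixed and 2.5-leaf rice seedlings were transplanted. On sowing day, the compound's emulsion, diluted in water to a set dose, was applied to the water surface. Plants grew at 25–30 °C and were scored 0–5 after three weeks.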
# [4] = test system: blackgrass; assay: Test Example 5: herbicidal effect by foliage application, plastic box (Table 20, symbol J); assay type: in vivo, blackgrass (Alopecurus myosuroides); conditions: foliage application, 320 g/ha, evaluated three weeks after application
# Summary of the method: (§3)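 Plants sown in sterilized diluvial soil and grown 14 days in a greenhouse at 25° C to 30° C, then sprayed on the foliage with the compound's emulsion diluted in water to a predetermined herbicide amount. Injury to weeds and crops scored three weeks after application on a visual rating scale.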
# [5] = test system: chickweed; assay: Test Example 4: herbicidal effect by soil treatment (Table 19, symbol P); assay type: in vivo, common chickweed (Stellaria media); conditions: amount of applied herbicide 320 g/ha
# Summary of the method: as §1
# [6] = test system: chickweed; assay: Test Example 5: herbicidal effect by foliage application, plastic box (Table 20, symbol P); assay type: in vivo, common chickweed (Stellaria media); conditions: foliage application, 320 g/ha, evaluated three weeks after application
# Summary of the method: as §3
# [7] = test system: velvetleaf; assay: Test Example 5: herbicidal effect by foliage application, plastic box (Table 20, symbol M); assay type: in vivo, velvetleaf (Abutilon theophrasti); conditions: foliage application, 320 g/ha, evaluated three weeks after application
# Summary of the method: as §3
# [8] = test system: southern crabgrass; assay: Test Example 4: herbicidal effect by soil treatment (Table 19, symbol F); assay type: in vivo, southern crabgrass (Digitaria ciliaris); conditions: amount of applied herbicide 320 g/ha
# Summary of the method: as §1
# [9] = test system: rice flat sedge; assay: Test Example 3: herbicidal effect by foliage application, Wagner pot (Table 18, symbol E); assay type: in vivo, rice flat sedge (Cyperus iria); conditions: amount of applied herbicide 320 g/ha
# Summary of the method: (§4)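 Plants were sown in alluvial soil held under 0.1–0.5 cm standing water and grown 14 days in a greenhouse at 25–30 °C. An emulsifiable formulation, water-diluted to the set dose, was then sprayed onto the foliage, and effects were scored three weeks later using previously defined criteria.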
# [10] = test system: lambsquarters; assay: Test Example 4: herbicidal effect by soil treatment (Table 19, symbol O); assay type: in vivo, lambsquarters (Chenopodium album); conditions: amount of applied herbicide 320 g/ha
# Summary of the method: as §1
# [11] = test system: wild oat; assay: Test Example 5: herbicidal effect by foliage application, plastic box (Table 20, symbol I); assay type: in vivo, wild oat (Avena fatua); conditions: foliage application, 320 g/ha, evaluated three weeks after application
# Summary of the method: as §3
# [12] = test system: southern crabgrass; assay: Test Example 5: herbicidal effect by foliage application, plastic box (Table 20, symbol F); assay type: in vivo, southern crabgrass (Digitaria ciliaris); conditions: foliage application, 320 g/ha, evaluated three weeks after application
# Summary of the method: as §3
# [13] = test system: green foxtail; assay: Test Example 4: herbicidal effect by soil treatment (Table 19, symbol G); assay type: in vivo, green foxtail (Setaria viridis); conditions: amount of applied herbicide 320 g/ha
# Summary of the method: as §1
# [14] = test system: Chinese sprangletop; assay: Test Example 3: herbicidal effect by foliage application, Wagner pot (Table 18, symbol D); assay type: in vivo, chinese sprangletop (Leptochloa chinensis); conditions: amount of applied herbicide 320 g/ha
# Summary of the method: as §4
# [15] = test system: barnyard grass; assay: Test Example 5: herbicidal effect by foliage application, plastic box (Table 20, symbol H); assay type: in vivo, barnyard grass (Echinochloa crus-galli); conditions: foliage application, 320 g/ha, evaluated three weeks after application
# Summary of the method: as §3
# [16] = test system: barnyard grass; assay: Test Example 3: herbicidal effect by foliage application, Wagner pot (Table 18, symbol H); assay type: in vivo, barnyard grass (Echinochloa crus-galli); conditions: amount of applied herbicide 320 g/ha
# Summary of the method: as §4
# [17] = test system: late watergrass; assay: Test Example 1: herbicidal activity, application before weed generation under submerged conditions (Table 16, symbol A); assay type: in vivo, late watergrass (Echinochloa oryzicola); conditions: 320 g/ha applied herbicide
# Summary of the method: as §2
# [18] = test system: persian speedwell; assay: Test Example 4: herbicidal effect by soil treatment (Table 19, symbol R); assay type: in vivo, Persian speedwell (Veronica persica); conditions: amount of applied herbicide 320 g/ha
# Summary of the method: as §1
# [19] = test system: redroot pigweed; assay: Test Example 5: herbicidal effect by foliage application, plastic box (Table 20, symbol N); assay type: in vivo, redroot pigweed (Amaranthus retroflexus); conditions: foliage application, 320 g/ha, evaluated three weeks after application
# Summary of the method: as §3
# [20] = test system: blackgrass; assay: Test Example 4: herbicidal effect by soil treatment (Table 19, symbol J); assay type: in vivo, blackgrass (Alopecurus myosuroides); conditions: amount of applied herbicide 320 g/ha
# Summary of the method: as §1
# [21] = test system: green foxtail; assay: Test Example 5: herbicidal effect by foliage application, plastic box (Table 20, symbol G); assay type: in vivo, green foxtail (Setaria viridis); conditions: foliage application, 320 g/ha, evaluated three weeks after application
# Summary of the method: as §3
# [22] = test system: Italian ryegrass; assay: Test Example 5: herbicidal effect by foliage application, plastic box (Table 20, symbol K); assay type: in vivo, Italian ryegrass (Lolium multiflorum); conditions: foliage application, 320 g/ha, evaluated three weeks after application
# Summary of the method: as §3
# [23] = test system: Japanese bulrush; assay: Test Example 1: herbicidal activity, application before weed generation under submerged conditions (Table 16, symbol B); assay type: in vivo, Japanese bulrush (Schoenoplectus juncoides); conditions: 320 g/ha applied herbicide
# Summary of the method: as §2
# [24] = test system: lambsquarters; assay: Test Example 5: herbicidal effect by foliage application, plastic box (Table 20, symbol O); assay type: in vivo, lambsquarters (Chenopodium album); conditions: foliage application, 320 g/ha, evaluated three weeks after application
# Summary of the method: as §3
# [25] = test system: wild oat; assay: Test Example 4: herbicidal effect by soil treatment (Table 19, symbol I); assay type: in vivo, wild oat (Avena fatua); conditions: amount of applied herbicide 320 g/ha
# Summary of the method: as §1
# [26] = test system: redroot pigweed; assay: Test Example 4: herbicidal effect by soil treatment (Table 19, symbol N); assay type: in vivo, redroot pigweed (Amaranthus retroflexus); conditions: amount of applied herbicide 320 g/ha
# Summary of the method: as §1
# [27] = test system: Italian ryegrass; assay: Test Example 4: herbicidal effect by soil treatment (Table 19, symbol K); assay type: in vivo, Italian ryegrass (Lolium multiflorum); conditions: amount of applied herbicide 320 g/ha
# Summary of the method: as §1
# [28] = test system: windgrass; assay: Test Example 4: herbicidal effect by soil treatment (Table 19, symbol L); assay type: in vivo, windgrass (Apera spica-venti); conditions: amount of applied herbicide 320 g/ha
# Summary of the method: as §1
# [29] = test system: persian speedwell; assay: Test Example 5: herbicidal effect by foliage application, plastic box (Table 20, symbol R); assay type: in vivo, Persian speedwell (Veronica persica); conditions: foliage application, 320 g/ha, evaluated three weeks after application
# Summary of the method: as §3
# [30] = test system: barnyard grass; assay: Test Example 4: herbicidal effect by soil treatment (Table 19, symbol H); assay type: in vivo, barnyard grass (Echinochloa crus-galli); conditions: amount of applied herbicide 320 g/ha
# Summary of the method: as §1
# [31] = test system: windgrass; assay: Test Example 5: herbicidal effect by foliage application, plastic box (Table 20, symbol L); assay type: in vivo, windgrass (Apera spica-venti); conditions: foliage application, 320 g/ha, evaluated three weeks after application
# Summary of the method: as §3
compound,measurement,setting,value
COCC(=O)Nc1ccc2sc(-c3ccc(F)cc3OC)c(-c3c(O)c(C)nn(C)c3=O)c2c1 [2-179],"Q: false cleavers, herbicidal effect rating",[1],0 (Herbicidal rate of 5% or less (almost no effect))
same,"M: velvetleaf, herbicidal effect rating",[2],0 (Herbicidal rate of 5% or less (almost no effect))
same,Herbicidal effect on C: oval-leafed pondweed (grade 0-5),[3],0 (Herbicidal rate of 5% or less (almost no effect))
same,herbicidal effect on J: blackgrass (criteria 0-5),[4],0 (Herbicidal rate of 5% or less (almost no effect))
same,"P: chickweed, herbicidal effect rating",[5],3 (Herbicidal rate of 40% or more and less than 70%)
same,herbicidal effect on P: chickweed (criteria 0-5),[6],5 (Herbicidal rate of 90% or more (almost completely withered))
same,herbicidal effect on M: velvetleaf (criteria 0-5),[7],1 (Herbicidal rate of 5% or more and less than 20%)
same,"F: southern crabgrass, herbicidal effect rating",[8],0 (Herbicidal rate of 5% or less (almost no effect))
same,herbicidal effect on E: rice flat sedge,[9],4 (Herbicidal rate of 70% or more and less than 90%)
same,"O: lambsquarters, herbicidal effect rating",[10],3 (Herbicidal rate of 40% or more and less than 70%)
same,herbicidal effect on I: wild oat (criteria 0-5),[11],0 (Herbicidal rate of 5% or less (almost no effect))
same,herbicidal effect on F: southern crabgrass (criteria 0-5),[12],0 (Herbicidal rate of 5% or less (almost no effect))
same,"G: green foxtail, herbicidal effect rating",[13],0 (Herbicidal rate of 5% or less (almost no effect))
same,herbicidal effect on D: Chinese sprangletop,[14],2 (Herbicidal rate of 20% or more and less than 40%)
same,herbicidal effect on H: barnyard grass (criteria 0-5),[15],0 (Herbicidal rate of 5% or less (almost no effect))
same,herbicidal effect on H: barnyard grass,[16],2 (Herbicidal rate of 20% or more and less than 40%)
same,Herbicidal effect on A: late watergrass (grade 0-5),[17],3 (Herbicidal rate of 40% or more and less than 70%)
same,"R: persian speedwell, herbicidal effect rating",[18],3 (Herbicidal rate of 40% or more and less than 70%)
same,herbicidal effect on N: redroot pigweed (criteria 0-5),[19],3 (Herbicidal rate of 40% or more and less than 70%)
same,"J: blackgrass, herbicidal effect rating",[20],0 (Herbicidal rate of 5% or less (almost no effect))
same,herbicidal effect on G: green foxtail (criteria 0-5),[21],0 (Herbicidal rate of 5% or less (almost no effect))
same,herbicidal effect on K: Italian ryegrass (criteria 0-5),[22],0 (Herbicidal rate of 5% or less (almost no effect))
same,Herbicidal effect on B: Japanese bulrush (grade 0-5),[23],0 (Herbicidal rate of 5% or less (almost no effect))
same,herbicidal effect on O: lambsquarters (criteria 0-5),[24],2 (Herbicidal rate of 20% or more and less than 40%)
same,"I: wild oat, herbicidal effect rating",[25],0 (Herbicidal rate of 5% or less (almost no effect))
same,"N: redroot pigweed, herbicidal effect rating",[26],2 (Herbicidal rate of 20% or more and less than 40%)
same,"K: Italian ryegrass, herbicidal effect rating",[27],0 (Herbicidal rate of 5% or less (almost no effect))
same,"L: windgrass, herbicidal effect rating",[28],0 (Herbicidal rate of 5% or less (almost no effect))
same,herbicidal effect on R: persian speedwell (criteria 0-5),[29],3 (Herbicidal rate of 40% or more and less than 70%)
same,"H: barnyard grass, herbicidal effect rating",[30],0 (Herbicidal rate of 5% or less (almost no effect))
same,herbicidal effect on L: windgrass (criteria 0-5),[31],0 (Herbicidal rate of 5% or less (almost no effect))
